# Experimental data taken from patent publication US6433011B1, “Method for inhibiting formation of aberrant crypt foci in the colon of a mammal” (American Health Foundation, priority 2000, dated 2002).
# Entries after “also recorded” stand apart in the source; their conditions may differ. Marks after values point to notes of the source that are not given here.
# Legend:
# colon tumor incidence = conditions: AOM treated rats, cited from earlier work
# ACF formation = conditions: given in the diet, short-term study (ref 10); cited from earlier work
# [1] = system: aberrant crypt foci (ACF) induced by azoxymethane (AOM) in the colon; experiment: AOM-induced colonic aberrant crypt foci (ACF) bioassay; assay type: in vivo, Male F344 rats
# Description: The inventors designed a bioassay to examine whether SFN and PEITC can inhibit the formation of aberrant crypt foci (ACF) induced by azoxymethane (AOM) in Fischer rats. ACF has been recognized as an early preneoplastic lesion of colon cancer (7-9) and it is generally observed that agents that inhibit colonic ACF formation would show chemopreventive activity against colon cancer (10). […] The structures of SFN and PEITC and their NAC conjugates are shown below. Two treatment regimens in which SFN and PEITC or their NAC conjugates were administered either after (post-initiation) or before (initiation) AOM treatment were used in the bioassay in order better to define the possible mechanism of action. [drawing 1] Male F344 rats were from Charles River (Kingston, N.Y.). They were fed AIN-76A diet (5% corn oil) and tap water ad libitum. […] PEITC and SFN were purchased from Aldrich Chemical Company (Milwaukee, Wis.) and LTK Labs, Inc. (St. […] The corresponding NAC conjugates were prepared by a published method (13, 26). The purity of the conjugates was greater than 97% as determined by high-performance liquid chromatography. AOM obtained from Ash-Stevens (Detroit, Mich.) was dissolved in saline and administered subcutaneously once a week for two weeks. SFN and PEITC in corn oil and the NAC conjugates in saline (10% DMSO) were given by gavage. Groups 2 to 5 were given 5 μmol SFN or PEITC or 20 μmol of the NAC conjugates, three doses each week for eight weeks, beginning two days after the last dose of AOM. Groups 6 to 9 were treated with three doses of ITC compounds (20 μmol ITC or 50 μmol ITC-NAC) once daily and the last dose was given 2 hr before AOM dosing. This dosing regimen was repeated during the second week of AOM dosing. Groups 10 to 13 were treated with ITCs (5 μmol/dose) or the conjugates (20 μmol/dose) only, three times weekly for eight weeks. Group 14 served as the control group. The bioassay was terminated at week 10 after the second AOM treatment. The colon was processed for microscopic examination and the ACF were recorded using a standard procedure described previously (14). […] For statistical analysis, means were compared among the groups using one-way analysis of variance (ANOVA) followed by Fisher's protected t-test.
# [2] = target: N,N-dimethylnitrosamine (NDMA) demethylase (CYP2E1) (Rattus norvegicus, UniProt P05182); conditions: rat liver microsomes; previously shown (ref 26); cited from earlier work
# Chain of N,N-dimethylnitrosamine (NDMA) demethylase (CYP2E1) (P05182 whole entry): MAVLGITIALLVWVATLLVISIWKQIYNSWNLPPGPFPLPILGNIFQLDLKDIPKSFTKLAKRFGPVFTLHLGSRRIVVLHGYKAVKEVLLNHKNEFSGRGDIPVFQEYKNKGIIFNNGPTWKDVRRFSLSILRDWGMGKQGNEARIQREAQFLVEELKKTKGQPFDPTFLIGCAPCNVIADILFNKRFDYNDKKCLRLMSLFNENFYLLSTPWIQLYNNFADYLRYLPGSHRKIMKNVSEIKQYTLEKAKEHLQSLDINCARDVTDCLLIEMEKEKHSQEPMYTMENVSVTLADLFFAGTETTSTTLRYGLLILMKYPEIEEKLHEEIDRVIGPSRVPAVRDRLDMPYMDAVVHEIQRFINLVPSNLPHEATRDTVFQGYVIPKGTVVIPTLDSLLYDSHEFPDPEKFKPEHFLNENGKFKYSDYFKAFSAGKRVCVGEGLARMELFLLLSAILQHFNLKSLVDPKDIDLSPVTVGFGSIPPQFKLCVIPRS
# [3] = dog, in vivo; cited from earlier work
# [4] = Toxicity observations (body weight, gastrointestinal symptoms) in the ACF bioassay
# colon tumorigenesis = conditions: rats; at the dose level studied (refs 29, 30); cited from earlier work
# esophagus tumorigenesis = conditions: rats; at the dose level studied (refs 29, 30); cited from earlier work
# lung tumorigenesis = conditions: previously reported; cited from earlier work
# [5] = initiation (pretreatment): 20 μmol ITC or 50 μmol ITC-NAC before AOM, negative = enhancement
# [6] = initiation (pretreatment): 20 μmol ITC or 50 μmol ITC-NAC by gavage before AOM, AOM alone (Group 1) 52
# [7] = initiation (pretreatment): 20 μmol ITC or 50 μmol ITC-NAC by gavage before AOM, AOM alone (Group 1) 153
# [8] = post-initiation: 5 μmol SFN or PEITC or 20 μmol NAC conjugate by gavage, three doses weekly for eight weeks after AOM, AOM alone (Group 1) 52
# [9] = post-initiation: 5 μmol SFN or PEITC or 20 μmol NAC conjugate by gavage, three doses weekly for eight weeks after AOM, AOM alone (Group 1) 153
# [10] = post-initiation: 5 μmol SFN or PEITC or 20 μmol NAC conjugate, three doses weekly for eight weeks after AOM
# [11] = ITC compound only, no AOM: 5 μmol/dose ITC or 20 μmol/dose conjugate, three times weekly for eight weeks
# [12] = initiation: ITC compound by gavage before AOM, 20 μmol ITC or 50 μmol ITC-NAC, three doses once daily, last 2 hr before AOM, repeated in second week
# [13] = post-initiation: ITC compound by gavage after AOM, 5 μmol SFN or PEITC or 20 μmol NAC conjugate, three doses each week for eight weeks
Molecule,Activity towards ACF formation (ACF formation),"Percent of inhibition compared to Group 1, Total aberrant crypt foci [1, 5]","Percent of inhibition compared to Group 1, aberrant crypt foci >4 Crypts [1, 5]","Number of aberrant crypt foci >4 Crypts [1, 6]","Number of aberrant crypt foci Total [1, 7]","Number of aberrant crypt foci >4 Crypts [1, 8]","Number of aberrant crypt foci Total [1, 9]","Percent of inhibition compared to Group 1, Total aberrant crypt foci [1, 10]","Percent of inhibition compared to Group 1, aberrant crypt foci >4 Crypts [1, 10]",Inhibition of NDMA demethylase (CYP2E1) [2],"Number of aberrant crypt foci >4 Crypts [1, 11]","Number of aberrant crypt foci Total [1, 11]","Average Body Weight at Termination [4, 11]","Average Body Weight at Termination [4, 12]","Average Body Weight at Termination [4, 13]",other results
"S=C=NCc1ccccc1 [BITC, benzyl isothiocyanate]",inactive; also recorded: slightly induce ACF formation,–,–,–,–,–,–,–,–,–,–,–,–,–,–,"Effect on colon tumor incidence, initiation phase (colon tumor incidence; initiation phase (ref 34)): inhibit; Effect on colon tumor incidence, post-initiation phase (colon tumor incidence; post-initiation phase (ref 34)): not during the post-initiation phase"
"S=C=NCCc1ccccc1 [PEITC, phenethyl isothiocyanate]",inactive,(25)^c %,(33)^f %,35,115,27,100,(35)^d %,(48)^c %,inhibitors,–,–,–,–,–,"Dose at which dose related weight loss became statistically significant [3]: 8 mg/kg; Dose at which signs of irritation of the mucosa of the urinary bladder were reported [3]: ≥ 4 mg/kg/day; Dose levels at which diarrhea and vomiting, with gastrointestinal irritation, occurred sporadically [3]: ≥ 2 mg/kg"
"CC(=O)N[C@@H](CSC(=S)NCCc1ccccc1)C(=O)O [PEITC-NAC, N-acetylcysteine conjugate of PEITC]",–,(−29)^e %,(−42)^c %,74,198,38,113,(26)^e %,(27)^f %,inhibitors,0,0,301,303,313,–
"C[S+]([O-])CCCCN=C=S (centres unmarked) [SFN, sulforaphane]",–,(29)^c %,(33)^f %,35,109,30,103,(33)^d %,"(42)^b,c %",–,0,0,309,310,301,–
S=C=NCCCCCCc1ccccc1 [phenylhexyl ITC],–,–,–,–,–,–,–,–,–,–,–,–,–,–,–,Effect on colon tumorigenesis (colon tumorigenesis): enhanced; Effect on esophagus tumorigenesis (esophagus tumorigenesis): enhanced; Effect on lung tumorigenesis (lung tumorigenesis): potent inhibitor
N-acetylcysteine conjugate of SFA [SFN-NAC],–,(22)^c %,15%,44,120,31,116,(24)^c %,(40)^c %,–,0,0,312,304,297,–
